Source: US10004701B2, “Methods and compositions for treating infection” (UNIVERSITY OF ROCHESTER, priority 2012, dated 2018)
Where a name gives a salt, the structure may show the parent alone. Read-outs that look alike come from different tables or passages of the source.

Key:
Assay in all cases: AK assay 384-well format, Prestwick library screening
P. aeruginosa = type: cell-based, Pseudomonas aeruginosa; settings: 50 μM final drug concentration; for fold induction at 50 µM: Pseudomonas aeruginosa, 3 h
[1] = system: S. aureus strain USA300-0114; type: cell-based, Staphylococcus aureus; settings: 50 μM final drug concentration; for fold induction at 50 µM: Staphylococcus aureus, USA300, 3 h
E. coli = type: cell-based, Escherichia coli; settings: 50 μM final drug concentration; for fold induction at 50 µM: Escherichia coli, 3 h
E. cloacae = type: cell-based, Enterobacter cloacae; settings: 50 μM final drug concentration; for fold induction at 50 µM: Enterobacter cloacae, 3 h
[2] = system: A. baumannii strain 98-37-09; type: cell-based, Acinetobacter baumannii; settings: 50 μM final drug concentration; for fold induction at 50 µM: Acinetobacter baumannii, 983709, 3 h
E. faecium = type: cell-based, Enterococcus faecium; settings: 50 μM final drug concentration; for fold induction at 50 µM: Enterococcus faecium, 3 h
K. pneumoniae = type: cell-based, Klebsiella pneumoniae; settings: 50 μM final drug concentration; for fold induction at 50 µM: Klebsiella pneumoniae, 3 h
[3] = planktonic, cutoff for positive 3-fold increase, read-out: AK-based Prestwick Library Screening Results, P. aeruginosa (fold increase in extracellular AK activity)
[4] = planktonic, cutoff for positive 3-fold increase, read-out: AK-based Prestwick Library Screening Results, S. aureus (fold increase in extracellular AK activity)
[5] = planktonic, cutoff for positive 3-fold increase, read-out: AK-based Prestwick Library Screening Results, E. coli (fold increase in extracellular AK activity)
[6] = planktonic, cutoff for positive 3-fold increase, read-out: AK-based Prestwick Library Screening Results, E. cloacae (fold increase in extracellular AK activity)
[7] = planktonic, cutoff for positive 3-fold increase, read-out: AK-based Prestwick Library Screening Results, A. baumannii (fold increase in extracellular AK activity)
[8] = planktonic, cutoff for positive 3-fold increase, read-out: AK-based Prestwick Library Screening Results, E. faecium (fold increase in extracellular AK activity)
[9] = planktonic, cutoff for positive 3-fold increase, read-out: AK-based Prestwick Library Screening Results, K. pneumoniae (fold increase in extracellular AK activity)
[10] = planktonic, […], read-out: AK-based Prestwick Library Screening Results, P. aeruginosa (fold increase in extracellular AK activity)
[11] = planktonic, […], read-out: AK-based Prestwick Library Screening Results, S. aureus (fold increase in extracellular AK activity)
[12] = planktonic, […], read-out: AK-based Prestwick Library Screening Results, E. coli (fold increase in extracellular AK activity)
[13] = planktonic, […], read-out: AK-based Prestwick Library Screening Results, E. cloacae (fold increase in extracellular AK activity)
[14] = planktonic, […], read-out: AK-based Prestwick Library Screening Results, A. baumannii (fold increase in extracellular AK activity)
[15] = planktonic, […], read-out: AK-based Prestwick Library Screening Results, E. faecium (fold increase in extracellular AK activity)
[16] = planktonic, […], read-out: AK-based Prestwick Library Screening Results, K. pneumoniae (fold increase in extracellular AK activity)
[17] = cutoff for positive-scoring molecules 3-fold increase

CC(=O)N(O)CCCCCNC(=O)CCC(=O)N(O)CCCCCNC(=O)CCC(=O)N(O)CCCCCN [Deferoxamine mesylate]
fold induction at 50 µM (P. aeruginosa; [3]): 0.4 | fold induction at 50 µM [1, 4]: 0.4 | fold induction at 50 µM (E. coli; [5]): 0.4 | fold induction at 50 µM (E. cloacae; [6]): 0.4 | fold induction at 50 µM [2, 7]: 0.4 | fold induction at 50 µM (E. faecium; [8]): 0.9 | fold induction at 50 µM (K. pneumoniae; [9]): 0.5

C[C@H](CCC(=O)O)[C@H]1CC[C@H]2[C@@H]3C(=O)C[C@@H]4CC(=O)CC[C@]4(C)[C@H]3CC(=O)[C@]12C [Dehydrocholic acid]
fold induction at 50 µM (P. aeruginosa; 384-well format, cutoff for positive-scoring molecules 3-fold increase, read-out: AK-based Prestwick Library Screening Results, P. aeruginosa (increase in extracellular AK activity)): 1 | fold induction at 50 µM ([1]; 384-well format, cutoff for positive-scoring molecules 3-fold increase, read-out: AK-based Prestwick Library Screening Results, S. aureus (increase in extracellular AK activity)): 1 | fold induction at 50 µM (E. coli; 384-well format, cutoff for positive-scoring molecules 3-fold increase, read-out: AK-based Prestwick Library Screening Results, E. coli (increase in extracellular AK activity)): 1.3 | fold induction at 50 µM (E. cloacae; 384-well format, cutoff for positive-scoring molecules 3-fold increase, read-out: AK-based Prestwick Library Screening Results, E. cloacae (increase in extracellular AK activity)): 1.4 | fold induction at 50 µM ([2]; 384-well format, cutoff for positive-scoring molecules 3-fold increase, read-out: AK-based Prestwick Library Screening Results, A. baumannii (increase in extracellular AK activity)): 1 | fold induction at 50 µM (E. faecium; 384-well format, cutoff for positive-scoring molecules 3-fold increase, read-out: AK-based Prestwick Library Screening Results, E. faecium (increase in extracellular AK activity)): 1 | fold induction at 50 µM (K. pneumoniae; 384-well format, cutoff for positive-scoring molecules 3-fold increase, read-out: AK-based Prestwick Library Screening Results, K. pneumoniae (increase in extracellular AK activity)): 0.8

CC(=O)O[C@H]1CC[C@@]2(C)C(=CC[C@@H]3[C@@H]2CC[C@]2(C)C(=O)CC[C@@H]32)C1 [Dehydroisoandosterone 3-acetate]
AK-based Prestwick Library Screening Results, P. aeruginosa (fold increase in extracellular AK activity) (P. aeruginosa; […]): 1.1 | AK-based Prestwick Library Screening Results, S. aureus (fold increase in extracellular AK activity) ([1]; […]): 0.8 | AK-based Prestwick Library Screening Results, E. coli (fold increase in extracellular AK activity) (E. coli; […]): 1.0 | AK-based Prestwick Library Screening Results, E. cloacae (fold increase in extracellular AK activity) (E. cloacae; […]): 1.7 | AK-based Prestwick Library Screening Results, A. baumannii (fold increase in extracellular AK activity) ([2]; […]): 1.1 | AK-based Prestwick Library Screening Results, E. faecium (fold increase in extracellular AK activity) (E. faecium; […]): 1.1 | AK-based Prestwick Library Screening Results, K. pneumoniae (fold increase in extracellular AK activity) (K. pneumoniae; […]): 0.9

CCN1C[C@]2(COC)CC[C@H](OC)[C@]34C5C[C@@H]6[C@@H](OC)C[C@@]7(OCO[C@@]7(C13)[C@@H](O)C24)C5[C@H]6OC (some centres unmarked) [Delcorine]
fold induction at 50 µM (P. aeruginosa; [10]): 0.9 | fold induction at 50 µM [1, 11]: 0.7 | fold induction at 50 µM (E. coli; [12]): 0.8 | fold induction at 50 µM (E. cloacae; [13]): 1.2 | fold induction at 50 µM [2, 14]: 0.9 | fold induction at 50 µM (E. faecium; [15]): 0.9 | fold induction at 50 µM (K. pneumoniae; [16]): 0.7

CCN1C[C@]2(COC)CC[C@H](O)[C@]34C1[C@@](O)([C@@H](OC)[C@H]23)[C@@]1(O)C[C@H](OC)[C@H]2C[C@@H]4[C@@H]1[C@H]2OC [Delsoline]
fold induction at 50 µM (P. aeruginosa; [10]): 0.8 | fold induction at 50 µM [1, 11]: 0.8 | fold induction at 50 µM (E. coli; [12]): 0.9 | fold induction at 50 µM (E. cloacae; [13]): 1.3 | fold induction at 50 µM [2, 14]: 0.9 | fold induction at 50 µM (E. faecium; [15]): 0.9 | fold induction at 50 µM (K. pneumoniae; [16]): 0.7

CCN1C[C@]2(C)CC[C@H](OC)[C@@]34C1[C@]1(OCO[C@@]15C[C@H](OC)[C@H]1C[C@]3(O)[C@@H]5[C@H]1OC)[C@@H](OC(C)=O)[C@H]24 [Deltaline]
fold induction at 50 µM (P. aeruginosa; [10]): 0.8 | fold induction at 50 µM [1, 11]: 0.8 | fold induction at 50 µM (E. coli; [12]): 0.9 | fold induction at 50 µM (E. cloacae; [13]): 1.1 | fold induction at 50 µM [2, 14]: 0.8 | fold induction at 50 µM (E. faecium; [15]): 0.9 | fold induction at 50 µM (K. pneumoniae; [16]): 0.7

CN(CCCCCCCCCCN(C)C(=O)Oc1cccc([N+](C)(C)C)c1)C(=O)Oc1cccc([N+](C)(C)C)c1 [Demecarium bromide]
fold induction at 50 µM (P. aeruginosa; [10]): 1.3 | fold induction at 50 µM [1, 11]: 0.8 | fold induction at 50 µM (E. coli; [12]): 1.4 | fold induction at 50 µM (E. cloacae; [13]): 2 | fold induction at 50 µM [2, 14]: 1.1 | fold induction at 50 µM (E. faecium; [15]): 1 | fold induction at 50 µM (K. pneumoniae; [16]): 1

CN(C)[C@@H]1C(O)=C(C(N)=O)C(=O)[C@@]2(O)C(O)=C3C(=O)c4c(O)ccc(Cl)c4[C@@H](O)[C@H]3C[C@@H]12 [Demeclocycline hydrochloride]
fold induction at 50 µM (P. aeruginosa; planktonic, cutoff for positive-scoring molecules 3-fold increase, read-out: AK-based Prestwick Library Screening Results, P. aeruginosa (fold increase in extracellular AK activity)): 0.4 | fold induction at 50 µM ([1]; planktonic, cutoff for positive-scoring molecules 3-fold increase, read-out: AK-based Prestwick Library Screening Results, S. aureus (fold increase in extracellular AK activity)): 7.1 | fold induction at 50 µM (E. coli; planktonic, cutoff for positive-scoring molecules 3-fold increase, read-out: AK-based Prestwick Library Screening Results, E. coli (fold increase in extracellular AK activity)): 0.5 | fold induction at 50 µM (E. cloacae; planktonic, cutoff for positive-scoring molecules 3-fold increase, read-out: AK-based Prestwick Library Screening Results, E. cloacae (fold increase in extracellular AK activity)): 1.3 | fold induction at 50 µM ([2]; planktonic, cutoff for positive-scoring molecules 3-fold increase, read-out: AK-based Prestwick Library Screening Results, A. baumannii (fold increase in extracellular AK activity)): 3.4 | fold induction at 50 µM (E. faecium; planktonic, cutoff for positive-scoring molecules 3-fold increase, read-out: AK-based Prestwick Library Screening Results, E. faecium (fold increase in extracellular AK activity)): 0.9 | fold induction at 50 µM (K. pneumoniae; planktonic, cutoff for positive-scoring molecules 3-fold increase, read-out: AK-based Prestwick Library Screening Results, K. pneumoniae (fold increase in extracellular AK activity)): 0.2

CC[N+](CC)(CC(=O)Nc1c(C)cccc1C)Cc1ccccc1 [Denatonium benzoate]
fold induction at 50 µM (P. aeruginosa; cutoff for positive-scoring molecules 3-fold increase, read-out: AK-based Prestwick Library Screening Results, P. aeruginosa (fold increase in extracellular AK activity)): 0.4 | fold induction at 50 µM ([1]; cutoff for positive-scoring molecules 3-fold increase, read-out: AK-based Prestwick Library Screening Results, S. aureus (fold increase in extracellular AK activity)): 0.4 | fold induction at 50 µM (E. coli; cutoff for positive-scoring molecules 3-fold increase, read-out: AK-based Prestwick Library Screening Results, E. coli (fold increase in extracellular AK activity)): 0.5 | fold induction at 50 µM (E. cloacae; cutoff for positive-scoring molecules 3-fold increase, read-out: AK-based Prestwick Library Screening Results, E. cloacae (fold increase in extracellular AK activity)): 0.4 | fold induction at 50 µM ([2]; cutoff for positive-scoring molecules 3-fold increase, read-out: AK-based Prestwick Library Screening Results, A. baumannii (fold increase in extracellular AK activity)): 0.3 | fold induction at 50 µM (E. faecium; cutoff for positive-scoring molecules 3-fold increase, read-out: AK-based Prestwick Library Screening Results, E. faecium (fold increase in extracellular AK activity)): 0.9 | fold induction at 50 µM (K. pneumoniae; cutoff for positive-scoring molecules 3-fold increase, read-out: AK-based Prestwick Library Screening Results, K. pneumoniae (fold increase in extracellular AK activity)): 0.4

C[C@]12CC[C@H]3[C@@H](CCC4=CC(=O)CC[C@@]43C)[C@@H]1CC[C@@H]2C(=O)CO [Deoxycorticosterone]
AK-based Prestwick Library Screening Results, P. aeruginosa (fold increase in extracellular AK activity) (P. aeruginosa; [17]): 1.3 | AK-based Prestwick Library Screening Results, S. aureus (fold increase in extracellular AK activity) [1, 17]: 1.6 | AK-based Prestwick Library Screening Results, E. coli (fold increase in extracellular AK activity) (E. coli; [17]): 1.2 | AK-based Prestwick Library Screening Results, E. cloacae (fold increase in extracellular AK activity) (E. cloacae; [17]): 1.3 | AK-based Prestwick Library Screening Results, A. baumannii (fold increase in extracellular AK activity) [2, 17]: 1.3 | AK-based Prestwick Library Screening Results, E. faecium (fold increase in extracellular AK activity) (E. faecium; [17]): 1.2 | AK-based Prestwick Library Screening Results, K. pneumoniae (fold increase in extracellular AK activity) (K. pneumoniae; [17]): 1.2

Cc1cc(N)c2ccccc2[n+]1CCCCCCCCCC[n+]1c(C)cc(N)c2ccccc21 [Dequalinium dichloride]
fold induction at 50 µM (P. aeruginosa; [3]): 2.3 | fold induction at 50 µM [1, 4]: 1.2 | fold induction at 50 µM (E. coli; [5]): 3 | fold induction at 50 µM (E. cloacae; [6]): 1.8 | fold induction at 50 µM [2, 7]: 3.2 | fold induction at 50 µM (E. faecium; [8]): 1.1 | fold induction at 50 µM (K. pneumoniae; [9]): 1.6
